{"source": "patent US11434490B2", "about": "“Fluorogen-binding RNA aptamers” (CENTRE NATIONAL DE LA RECHERCHE SCIENTIFIQUE, priority 2017, dated 2022)", "molecules": {"B1": {"name": "Mango II - A22U: Mango-II point mutant; SEQ ID NO: 6903 / 6905 (nucleic acid)", "chain 1": "GCGUACGAAGGAGAGGAGAGGUAGAGGAGAGUACGC", "chain 2": "GGCACGUACGAAGGAGAGGAGAGGUAGAGGAGAGUACGUGC", "modifications": "chemistry not given here"}}, "key": {"[1]": {"test": "Fluorescence enhancement of TO1-PA", "format": "biochemical", "conditions": "ligand TO1-PA", "procedure": "(§1) The bandwidth for all measurements was 1.5 nm for all experiments. Measurements were performed in a 0.2 cm path length cuvette in a background of 20 mM MOPS pH 7.0, 150 mM KCl, 10 μM EDTA. Fluorescence readings were taken in the absence of RNA at a ligand concentration of 0.82 μM. A concentrated, annealed stock of RNA was then added to the cuvette resulting in a final concentration of 2 μM RNA and allowed to equilibrate for 1 minute prior to taking an emission reading. Fluorescence enhancement was determined by dividing the fluorescence signal of ligand in the presence of RNA by the fluorescence signal in the absence of RNA corrected for the background of the instrument."}, "[2]": {"test": "Fluorescence enhancement of TO1-ME", "format": "biochemical", "conditions": "ligand TO1-ME", "procedure": "as §1"}, "[3]": {"test": "Fluorescence titration, binding affinity for TO1-Biotin", "conditions": "for Kd: ligand TO1-B (TO1-Biotin)", "from_the_text": "FIG. 2|RNA Mango I, II, III and IV core sequences and their properties. (a) Color coded alignment of RNA Mango I, II, III and IV. G residues in yellow are protected from DMS cleavage (data from panel d) when folded in the presence of fluorophore. Quadruplex stacks and their associated propeller sequences are numbered 1 through 4. The GAAA isolation motif of Mango I, together with two adenines essential for binding, are shown in green and red respectively. Purple shading represents a flanking stem region common for all four Mango aptamers. Schematic: A tertiary structure schematic of Mango I, showing tier 1, 2 and 3 of its quadruplex structure (T1, T2 and T3) and color-coded as in (a). […] Bottom: Top view of the Mango I core (PBD ID: 5V3F), showing the T3 tier of the quadruplex and relevant propeller residues, color coding matches the schematic and panel a. […] KD values are shown next to each titration. (c) Same as for panel b but using 20 nM TO3-Biotin. Data for panels b and c have been normalized such that Mango I has a maximum fluorescence of 1. Error bars are standard deviation of three replicates. (d) DMS chemical protection patterns for the four Mango aptamers. 3′ end-labelled RNA (terminal ^32pCp shown as a black asterisk) was subjected to DMS chemical modification followed by reduction by NaBH4 and aniline cleavage as described in the methods. […] Legend: T1—denatured T1 ladder; OH—partial alkaline hydrolysis ladder; (−) DMS—denatured reaction with ddH2O added in place of DMS; 80° C.\nFluorescence data was gathered using a Varian Cary Eclipse Spectrophotometer unless otherwise stated. […] Fluorescence was measured at the maximum excitation and emission wavelengths of each complex (FIG. 13).\nWhere F([RNA]) is the fluorescence as a function of RNA concentration [RNA], Fmax is the maximal fluorescence of the bound complex and Funbound the fluorescence of the unbound fluorophore. When the fluorescence of Funbound was undetectable, it was set to zero.\nFluorescence readings were recorded using a Varian Cary Eclipse Spectrophotometer set to measure at the maximum excitation and emission wavelengths of the Mango II aptamer dye complex. Fluorescence titrations were performed in Mango selection buffer (WB: 140 mM KCl, 1 mM MgCl2, 10 mM NaH2PO4 pH 7.2, 0.05% Tween-20)."}, "[4]": {"test": "Fluorescence enhancement of TO1-Biotin", "format": "biochemical", "conditions": "ligand TO1-B; 0.82 μM ligand, 2 μM RNA", "procedure": "as §1"}, "[5]": {"test": "Fluorescence lifetime measurements (TCSPC)", "format": "physicochemical", "conditions": "for α1 (%): amplitude of τ1; for α2 (%): amplitude of τ2; for τi (ns), intensity-weighted average lifetime / τa (ns), amplitude-weighted average lifetime: calculated from the components; for τ1 (ns) / τ2 (ns): free TO1-Biotin or RNA bound to TO1-Biotin", "procedure": "Fluorophore lifetime measurements were performed by using an in-house modified 2-photon fluorescence microscope based on a Zeiss LSM 510 unit capable of Time-Correlated Single-Photon Counting (TCSPC) measurements. A diode-pumped solid state laser (Millenia Prime, Spectra Physics, Newport, Calif.) was used to pump a Ti:Sapphire Tsunami oscillator (Model 3960C, Spectra Physics, Newport, Calif.), operating in femtosecond mode, at a repetition rate of 80 MHz, and tunable in the near infrared region. The output beam of the Ti:Sapphire laser was directed into an acousto-opto modulator (MT110/B50/A1.5 IR/S, AA Optoelectronic, France), controlled through the Zeiss LSM electronics and software, to attenuate the power before steering it into the LSM unit. The beam was reflected onto a 700/488 dichroic mirror and directed into the back aperture of a Plan Apochromat 63×, NA 1.4, oil immersion objective, and expanded to fill the back pupil. The fluorescence from the sample was collected from the same objective, intercepted by a 733LP dichroic mirror, sent toward the back port of the microscope, filtered through an ET700SP-2P filter (Chroma Technologies, Bellows Falls, Vt.) to remove residual scattering from the laser, and further passed through a 540/50 nm bandpass filter (Semrock, Rochester, N.Y.). The fluorescence is finally focused onto the photocathode of a H7422P-40 GaAsP photomultiplier detector (Hamamatsu, Japan). The large NA of the objective contributes to a certain degree of depolarization of the incoming excitation beam, as well as of the detected fluorescence. According to Fisz (J. Chem. Phys. A, 2007 and 2009), this would allow one to omit an analyzer (polarizer) in front of our detector, because magic angle conditions are achieved by using a 45° angle detection (i.e. unpolarized) configuration. The signal from the detector and the synchronization signal from the laser are directed into an SPC150 photon counting card (Becker & Hickl, Germany), controlled by the SPCM64 proprietary software from the manufacturer (Becker & Hickl, Germany). The data were collected with a 12.5 ns time window in TCSPC histogramming mode with 1024 channels, with a width of 12.2 ps each.\nFor the experiments the laser was tuned at 780 nm, and the power adjusted to 18 mW before the objective lens. RNA samples were diluted to a concentration of ˜3-5 μM in buffer. TO-1B was measured at a concentration of 50 μM due to low fluorescence signal of the compound, compared to the RNA-bound version. An 80 μl droplet was deposited onto a #1.5 coverslip, previously treated with BSA to avoid nonspecific binding of RNA to the glass, and covered to avoid evaporation. The excitation was focused ˜5 μm above the upper surface of the coverslip to reduce scatter and to avoid collecting signal from molecules immobilized on the glass surface. The beam was kept stationary by using the LSM controller to simply open the excitation shutter, and data were collected until the maximum count in the peak channel of the TCSPC histogram reached 10^4 photons. Experiments were repeated in triplicate. An instrument response function (IRF) was collected on every day of measurement by recording the second harmonic generation (SHG) signal from crushed urea crystals deposited onto a glass coverslip, in this case the bandpass filter before the detector was substituted with a 440 nm short pass filter to collect the 390 nm SHG. The data collected with the SPCM64 software were stored as *.sdt files for subsequent analysis.\nData were analyzed using the SPCImage software (Becker & Hickl, Germany). The fluorescence decay curves were fit using exponential functions of the form:\nWhere n is at most equal to 3 in our software. The data fitting routine uses a least-square algorithm where the exponential function is first reconvoluted with the measured IRF and then fit to the data. The shift of the IRF for each dataset, as well as a scatter contribution were included as free parameters during fitting. […]"}}}
{"molecule": "Mango-II: minimal construct engineered from isolate R2-1; SEQ ID NO: 6902 GCGUACGAAGGAGAGGAGAGGAAGAGGAGAGUACGC (chemistry not given here)", "values": [{"measurement": "FIE (fluorescence enhancement)", "setting": "[1]", "value": "493 ± 5"}, {"measurement": "FIE (fluorescence enhancement)", "setting": "[2]", "value": "401 ± 6"}, {"measurement": "TO1-Biotin binding affinity (in words)", "setting": "[3]", "value": "subnanomolar affinity"}, {"measurement": "Kd", "setting": "[3]", "value": "1.1 ± 0.3", "unit": "nM"}, {"measurement": "FIE (fluorescence enhancement)", "setting": "[4]", "value": "1303 ± 20"}, {"measurement": "α1 (%)", "setting": "[5]", "value": 45, "unit": "%"}, {"measurement": "α2 (%)", "setting": "[5]", "value": 55, "unit": "%"}, {"measurement": "τi (ns), intensity-weighted average lifetime", "setting": "[5]", "value": 2.05, "unit": "ns"}, {"measurement": "τa (ns), amplitude-weighted average lifetime", "setting": "[5]; listed as Mango II wt", "value": 1.51, "unit": "ns"}, {"measurement": "τa (ns), amplitude-weighted average lifetime", "setting": "[5]; listed as wild-type Mango-II", "value": "1.51 (±0.06) ns"}, {"measurement": "τ1 (ns)", "setting": "[5]; listed as Mango II wt", "value": 0.52, "unit": "ns"}, {"measurement": "τ2 (ns)", "setting": "[5]; listed as Mango II wt", "value": 2.33, "unit": "ns"}, {"measurement": "τ1 (ns)", "setting": "[5]; listed as wild-type Mango-II", "value": "0.52 (±0.02) ns"}, {"measurement": "τ2 (ns)", "setting": "[5]; listed as wild-type Mango-II", "value": "2.33 (±0.12) ns"}]}
{"molecule": "B1", "values": [{"measurement": "FIE (fluorescence enhancement)", "setting": "[1]", "value": "275 ± 3"}, {"measurement": "FIE (fluorescence enhancement)", "setting": "[2]", "value": "302 ± 6"}, {"measurement": "Kd", "setting": "[3]", "value": "0.9 ± 0.4", "unit": "nM"}, {"measurement": "FIE (fluorescence enhancement)", "setting": "[4]", "value": "1543 ± 24"}, {"measurement": "α1 (%)", "setting": "[5]", "value": 45, "unit": "%"}, {"measurement": "α2 (%)", "setting": "[5]", "value": 55, "unit": "%"}, {"measurement": "τa (ns), amplitude-weighted average lifetime", "setting": "[5]", "value": 1.92, "unit": "ns"}, {"measurement": "τi (ns), intensity-weighted average lifetime", "setting": "[5]", "value": 2.53, "unit": "ns"}, {"measurement": "τa (ns), amplitude-weighted average lifetime", "setting": "[5]; listed as A22U mutant", "value": "1.92 (±0.03) ns"}, {"measurement": "τ1 (ns)", "setting": "[5]", "value": 0.72, "unit": "ns"}, {"measurement": "τ2 (ns)", "setting": "[5]", "value": 2.904, "unit": "ns"}, {"measurement": "τ1 (ns)", "setting": "[5]; listed as A22U mutant", "value": "0.72 (±0.01) ns"}, {"measurement": "τ2 (ns)", "setting": "[5]; listed as A22U mutant", "value": "2.904 (±0.001) ns"}]}
